Test results taken from patent publication US20070173462A1, “Treatment of diseases associated with the use of antibiotics” (Optimer Pharmaceuticals, Inc., priority 2004, published 2007).
≈ marks a conversion by molar mass, not a printed value.

Experiments:
Eschericia coli = assay: organism not typed; type: cell-based; conditions: clinical gastrointestinal isolates, n=10
C. paraputrificum = assay: microbe, parasite or virus in culture; type: cell-based; conditions: clinical isolates, n=10
toxigenic C. difficile = assay: Hamster model of clindamycin-induced Clostridium difficile associated diarrhea/colitis; type: in vivo, Syrian hamsters
Method: Animals were treated with two oral doses of clindamycin at 100 mg/kg. Three days after the second dose of clindamycin, they were inoculated with toxigenic C. difficile spores. […] Animals were observed daily for the presence or absence of diarrhea. Necropsies were performed on some animals that died during the experiment, and cecal contents were assayed for C. difficile toxin A. Hamsters were monitored for 20 days, and the cumulative mortality during this period was recorded (FIG. 1).

C. innocuum = assay: microbe, parasite or virus in culture; type: cell-based; conditions: [Clostridium] innocuum; clinical isolates, n=9
[1] = tested on: C. difficile, C. perfringens and C. sordellii; assay: organism not typed; type: cell-based
Staphylococcus sp. = assay: MIC, clinical isolates (Table 3); type: cell-based
Text: (§1) Compound I was additionally tested against anaerobic clinical isolates and against aerobic bacteria. […] The compound was also active against clinical strains of Staphylococcus sp. and Enterococcus sp.

Eubacterium sp. = assay: MIC, clinical isolates (Table 3); type: cell-based; conditions: n=26
Text: as §1

Prevotella sp. = assay: MIC, clinical isolates (Table 3); type: cell-based; conditions: n=35
Text: as §1

Bacteroides fragilis = assay: MIC, clinical isolates (Table 3); type: cell-based; conditions: n=69
Text: as §1

Enterococcus sp. = assay: MIC, clinical isolates (Table 3); type: cell-based
Text: as §1

Streptococcus sp. [2] = assay: MIC, clinical isolates (Table 3); type: cell-based; conditions: n=10
Text: as §1

Lactobacillus sp. = assay: MIC, clinical isolates (Table 3); type: cell-based; conditions: n=8, in µg/mL
Text: as §1

Pseudomonas sp. = assay: MIC, clinical isolates (Table 3); type: cell-based; conditions: n=15
Text: as §1

[3] = tested on: Other anaerobic Gram negative rods; assay: organism not typed; type: cell-based; conditions: clinical gastrointestinal isolates, n=51
Streptococcus sp. [4] = assay: microbe, parasite or virus in culture; type: cell-based; conditions: clinical gastrointestinal isolates, n=9
Stephylococcus sp. = assay: organism not typed; type: cell-based; conditions: clinical gastrointestinal isolates, n=19
[5] = tested on: Streptococcus milleri group; assay: microbe, parasite or virus in culture; type: cell-based; conditions: clinical gastrointestinal isolates, n=14

CCc1c(Cl)c(O)c(Cl)c(O)c1C(=O)O[C@H]1[C@H](O)[C@H](OC)[C@H](OC/C2=C\C=C\C[C@H](O)/C(C)=C/[C@H](CC)C(O[C@@H]3OC(C)(C)[C@@H](OC(=O)C(C)C)[C@H](O)[C@@H]3O)/C(C)=C/C(C)=C/C[C@@H](C(C)O)OC2=O)O[C@@H]1C (stereo partly drawn) [Compound I]
MIC50 (Eschericia coli): > 256 µg/mL
MIC90 (Eschericia coli): > 256 µg/mL
Range (MIC) (Eschericia coli): >256 µg/mL
MIC50 (C. paraputrificum; Clostridium paraputrificum): 8 µg/mL (≈ 7.56 µM)
MIC90 (C. paraputrificum; Clostridium paraputrificum): 32 µg/mL (≈ 30.2 µM)
Range (MIC) (C. paraputrificum): 0.062-64 ^ μg/mL
ED50 (toxigenic C. difficile; Clostridioides difficile, oral, 7 days, started 8 hours after infection, hamsters monitored 20 days): < 0.3 mg/kg
protection from infection (cumulative mortality over 20 days) (toxigenic C. difficile; oral treatment for 7 days, untreated infection uniformly fatal between days two and six): protected the animals from infection
MIC50 (C. innocuum): > 1020 µg/mL
MIC90 (C. innocuum): > 1020 µg/mL
MIC90 [1]: 0.062 to 0.25 µg/mL (≈ 0.0586 to 0.236 µM)
MIC50 (Staphylococcus sp.; Staphylococcus, clinical isolates, n=10): 2 µg/mL (≈ 1.89 µM)
Range (MIC) (Staphylococcus sp.; clinical isolates, n=10, in µg/mL): 1-8
activity (in words) (Staphylococcus sp.; clinical strains): active
MIC50 (Eubacterium sp.): 32 µg/mL (≈ 30.2 µM)
MIC50 (Prevotella sp.): ≥ 128 µg/mL
MIC50 (Bacteroides fragilis; Bacteroides fragilis): ≥ 128 µg/mL
Range (MIC) (Bacteroides fragilis): ≧128^
MIC50 (Enterococcus sp.; Enterococcus, clinical isolates, n=8): 4 µg/mL (≈ 3.78 µM)
Range (MIC) (Enterococcus sp.; clinical isolates, n=8, in µg/mL): 1-8
activity (in words) (Enterococcus sp.; clinical strains): active
MIC50 (Streptococcus sp. [2]): 16 µg/mL (≈ 15.1 µM)
Range (MIC) (Lactobacillus sp.): 8-32
MIC50 (Pseudomonas sp.; Pseudomonas): > 64 µg/mL
Range (MIC) (Pseudomonas sp.): > 64 µg/mL
MIC50 [3]: 1020 µg/mL (≈ 968 µM)
MIC90 [3]: > 1020 µg/mL
MIC50 (Streptococcus sp. [4]; Streptococcus): 32 µg/mL (≈ 30.2 µM)
MIC90 (Streptococcus sp. [4]; Streptococcus): 128 µg/mL (≈ 121 µM)
Range (MIC) (Streptococcus sp. [4]): 16 to 128 µg/mL
MIC50 (Stephylococcus sp.): 0.5 µg/mL (≈ 0.473 µM)
MIC90 (Stephylococcus sp.): 1 µg/mL (≈ 0.945 µM)
Range (MIC) (Stephylococcus sp.): 0.25-2 ^ μg/mL
MIC50 ([5]; Streptococcus milleri): 32 µg/mL (≈ 30.2 µM)
MIC90 ([5]; Streptococcus milleri): 32 µg/mL (≈ 30.2 µM)
Range (MIC) [5]: 16 to 64 µg/mL
